Columns and labels:
Experiment in all cases: radiometric filter-binding kinase assay, Kinaseprofiler
ACVR1B (human) = ACVR1B (human) (UniProt P36896); settings: ATP 10 µM
AURKB (human) = AURKB (human) (UniProt Q96GD4); settings: ATP 10 µM
[1] = system: BRSK2 (human), Q8IWQ3 [S251I]; settings: ATP 70 µM
BTK (human) = BTK (human) (UniProt Q06187); settings: ATP 200 µM
CDK2 CCNA2 (human) = CDK2 CCNA2 (human) (UniProt P24941+P20248); settings: ATP 45 µM
CHEK2 (human) = CHEK2 (human) (UniProt O96017); settings: ATP 70 µM
CLK3 (human) = CLK3 (human) (UniProt P49761); settings: ATP 90 µM
[2] = target: CSNK2A1 CSNK2B CSNK2A2 (human) (UniProt P19784+P68400+P67870); settings: ATP 15 µM
ERBB4 (human) = ERBB4 (human) (UniProt Q15303); settings: ATP 15 µM
FGFR1 (human) = FGFR1 (human) (UniProt P11362); settings: ATP 200 µM
IRAK1 (human) = IRAK1 (human) (UniProt P51617); settings: ATP 45 µM
[3] = target: JAK3 JH1 catalytic (human) (UniProt P52333); settings: ATP 10 µM
MAPK1 (human) = MAPK1 (human) (UniProt P28482); settings: ATP 155 µM
MAPK10 (human) = MAPK10 (human) (UniProt P53779); settings: ATP 10 µM
MAPK13 (human) = MAPK13 (human) (UniProt O15264); settings: ATP 15 µM
MAPK8 (human) = MAPK8 (human) (UniProt P45983); settings: ATP 45 µM
MTOR FKBP1A (human) = MTOR FKBP1A (human) (UniProt P42345+P62942); settings: ATP 45 µM
NTRK1 (human) = NTRK1 (human) (UniProt P04629); settings: ATP 120 µM
NUAK1 (human) = NUAK1 (human) (UniProt O60285); settings: ATP 45 µM
PAK4 (human) = PAK4 (human) (UniProt O96013); settings: ATP 10 µM
PAK7 (human) = PAK7 (human) (UniProt Q9P286); settings: ATP 15 µM
PDPK1 (human) = PDPK1 (human) (UniProt O15530); settings: ATP 10 µM
[4] = target: PRKAA1 PRKAB1 PRKAG1 (human) (UniProt P54619+Q13131+Q9Y478); settings: ATP 45 µM
PRKCE (human) = PRKCE (human) (UniProt Q02156); settings: ATP 45 µM
PRKCI (human) = PRKCI (human) (UniProt P41743); settings: ATP 155 µM
PTK2B (human) = PTK2B (human) (UniProt Q14289); settings: ATP 90 µM
RPS6KA3 KD1 KD2 (human) = RPS6KA3 KD1 KD2 (human) (UniProt P51812); settings: ATP 10 µM
[5] = system: SGK1 (human), O00141 [S422D]; settings: ATP 90 µM
STK3 (human) = STK3 (human) (UniProt Q13188); settings: ATP 155 µM
TAOK1 (human) = TAOK1 (human) (UniProt Q7L7X3); settings: ATP 10 µM
TSSK1B (human) = TSSK1B (human) (UniProt Q9BXA7); settings: ATP 15 µM
VRK2 (human) = VRK2 (human) (UniProt Q86Y07); settings: ATP 70 µM

Chain of JAK3 JH1 catalytic (human) (P52333 whole entry, looked up): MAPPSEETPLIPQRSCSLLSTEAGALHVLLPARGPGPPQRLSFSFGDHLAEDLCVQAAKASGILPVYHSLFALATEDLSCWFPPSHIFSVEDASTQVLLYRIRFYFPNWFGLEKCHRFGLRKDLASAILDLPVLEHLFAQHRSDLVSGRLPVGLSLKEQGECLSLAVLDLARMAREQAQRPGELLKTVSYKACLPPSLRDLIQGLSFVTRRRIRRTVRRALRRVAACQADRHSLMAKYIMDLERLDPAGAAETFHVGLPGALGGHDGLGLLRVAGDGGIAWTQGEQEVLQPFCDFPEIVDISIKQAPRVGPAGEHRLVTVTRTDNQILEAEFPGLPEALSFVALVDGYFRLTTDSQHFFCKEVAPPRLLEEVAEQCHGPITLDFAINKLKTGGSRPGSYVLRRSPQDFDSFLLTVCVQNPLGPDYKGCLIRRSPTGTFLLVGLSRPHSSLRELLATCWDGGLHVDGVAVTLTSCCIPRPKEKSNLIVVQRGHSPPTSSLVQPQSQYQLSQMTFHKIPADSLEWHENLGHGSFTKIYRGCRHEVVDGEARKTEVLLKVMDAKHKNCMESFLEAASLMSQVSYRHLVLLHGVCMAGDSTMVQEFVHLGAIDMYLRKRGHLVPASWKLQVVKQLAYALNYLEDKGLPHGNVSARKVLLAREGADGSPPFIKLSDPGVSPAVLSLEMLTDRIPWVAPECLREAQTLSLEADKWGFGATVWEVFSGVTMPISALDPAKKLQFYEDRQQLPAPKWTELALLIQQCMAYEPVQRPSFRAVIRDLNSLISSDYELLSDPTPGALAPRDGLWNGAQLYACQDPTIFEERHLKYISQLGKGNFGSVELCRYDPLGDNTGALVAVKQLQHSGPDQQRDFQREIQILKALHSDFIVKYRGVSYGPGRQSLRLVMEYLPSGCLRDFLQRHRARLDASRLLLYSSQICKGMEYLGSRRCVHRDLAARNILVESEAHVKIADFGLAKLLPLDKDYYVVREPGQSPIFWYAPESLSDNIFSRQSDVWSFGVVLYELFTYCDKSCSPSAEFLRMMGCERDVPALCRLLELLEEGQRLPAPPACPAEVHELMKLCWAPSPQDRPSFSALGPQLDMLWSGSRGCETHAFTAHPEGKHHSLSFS
Chain of RPS6KA3 KD1 KD2 (human) (P51812 whole entry, looked up): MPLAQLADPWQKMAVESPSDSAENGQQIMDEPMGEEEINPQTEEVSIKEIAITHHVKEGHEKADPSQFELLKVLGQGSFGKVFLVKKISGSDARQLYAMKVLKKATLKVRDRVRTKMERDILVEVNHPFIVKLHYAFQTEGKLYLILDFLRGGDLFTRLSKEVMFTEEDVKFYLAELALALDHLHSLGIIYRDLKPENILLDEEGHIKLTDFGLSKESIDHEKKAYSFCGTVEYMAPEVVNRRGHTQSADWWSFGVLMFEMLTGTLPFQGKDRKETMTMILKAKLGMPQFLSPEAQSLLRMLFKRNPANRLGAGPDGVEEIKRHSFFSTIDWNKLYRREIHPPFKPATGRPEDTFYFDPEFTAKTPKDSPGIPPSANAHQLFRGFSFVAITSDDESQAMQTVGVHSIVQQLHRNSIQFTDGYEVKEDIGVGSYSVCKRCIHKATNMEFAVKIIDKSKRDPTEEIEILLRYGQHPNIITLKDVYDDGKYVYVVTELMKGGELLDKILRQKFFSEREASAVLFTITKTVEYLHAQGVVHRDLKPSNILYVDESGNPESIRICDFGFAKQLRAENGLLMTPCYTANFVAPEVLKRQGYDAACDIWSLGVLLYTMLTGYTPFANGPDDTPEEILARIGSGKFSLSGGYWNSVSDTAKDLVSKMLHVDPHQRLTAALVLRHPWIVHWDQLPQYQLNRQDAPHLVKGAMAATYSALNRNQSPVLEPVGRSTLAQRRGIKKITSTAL
Chain of PRKCI (human) (P41743 whole entry, looked up): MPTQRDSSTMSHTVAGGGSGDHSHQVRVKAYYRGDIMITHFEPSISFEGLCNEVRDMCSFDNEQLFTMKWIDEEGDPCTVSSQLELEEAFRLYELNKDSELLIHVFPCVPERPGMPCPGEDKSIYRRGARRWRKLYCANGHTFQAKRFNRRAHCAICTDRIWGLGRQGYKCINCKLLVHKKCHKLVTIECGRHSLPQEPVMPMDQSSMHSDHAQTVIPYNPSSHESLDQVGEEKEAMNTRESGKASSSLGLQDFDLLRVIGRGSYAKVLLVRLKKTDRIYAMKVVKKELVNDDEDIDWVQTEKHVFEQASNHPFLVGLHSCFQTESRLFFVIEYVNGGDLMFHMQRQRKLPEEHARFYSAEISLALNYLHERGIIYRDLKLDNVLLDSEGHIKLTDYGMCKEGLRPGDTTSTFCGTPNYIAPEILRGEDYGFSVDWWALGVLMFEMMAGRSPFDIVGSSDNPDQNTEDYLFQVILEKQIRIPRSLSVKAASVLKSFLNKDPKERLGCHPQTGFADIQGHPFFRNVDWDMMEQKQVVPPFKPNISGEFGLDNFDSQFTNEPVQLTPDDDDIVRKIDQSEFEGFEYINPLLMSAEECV
Chain of ERBB4 (human) (Q15303 whole entry, looked up): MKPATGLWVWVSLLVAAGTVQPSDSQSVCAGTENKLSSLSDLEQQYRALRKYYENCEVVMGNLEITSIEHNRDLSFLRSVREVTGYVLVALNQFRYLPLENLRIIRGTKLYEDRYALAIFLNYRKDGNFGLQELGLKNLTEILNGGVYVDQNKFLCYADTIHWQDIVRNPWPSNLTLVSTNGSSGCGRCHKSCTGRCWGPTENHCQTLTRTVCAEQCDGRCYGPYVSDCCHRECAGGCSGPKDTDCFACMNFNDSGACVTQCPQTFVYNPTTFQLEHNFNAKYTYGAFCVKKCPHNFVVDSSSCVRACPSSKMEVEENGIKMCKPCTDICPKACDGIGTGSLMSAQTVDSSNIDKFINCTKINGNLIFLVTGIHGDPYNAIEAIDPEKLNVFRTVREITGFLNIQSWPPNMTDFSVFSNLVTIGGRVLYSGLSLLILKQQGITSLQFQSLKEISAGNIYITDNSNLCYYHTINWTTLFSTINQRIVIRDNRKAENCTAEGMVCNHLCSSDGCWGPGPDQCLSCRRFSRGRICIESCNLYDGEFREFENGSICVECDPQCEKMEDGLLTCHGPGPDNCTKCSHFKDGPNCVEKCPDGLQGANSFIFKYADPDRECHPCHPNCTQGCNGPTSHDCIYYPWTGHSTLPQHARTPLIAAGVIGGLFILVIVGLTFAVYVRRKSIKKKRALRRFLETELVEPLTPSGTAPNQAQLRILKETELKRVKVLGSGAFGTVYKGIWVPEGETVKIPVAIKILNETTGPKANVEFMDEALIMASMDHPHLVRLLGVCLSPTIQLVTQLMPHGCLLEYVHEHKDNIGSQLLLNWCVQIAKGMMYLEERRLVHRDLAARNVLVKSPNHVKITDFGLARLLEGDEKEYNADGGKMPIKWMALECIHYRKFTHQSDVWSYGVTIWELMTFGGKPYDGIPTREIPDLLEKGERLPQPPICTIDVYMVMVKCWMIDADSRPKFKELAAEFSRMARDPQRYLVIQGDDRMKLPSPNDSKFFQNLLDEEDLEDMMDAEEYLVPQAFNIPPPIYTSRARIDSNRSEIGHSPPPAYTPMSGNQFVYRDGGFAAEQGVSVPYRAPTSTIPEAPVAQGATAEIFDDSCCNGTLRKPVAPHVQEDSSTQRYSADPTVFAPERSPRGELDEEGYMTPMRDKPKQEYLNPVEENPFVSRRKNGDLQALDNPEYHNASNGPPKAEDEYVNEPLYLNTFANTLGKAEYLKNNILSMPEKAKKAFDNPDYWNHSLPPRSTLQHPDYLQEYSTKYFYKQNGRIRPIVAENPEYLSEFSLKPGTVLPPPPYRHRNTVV
Chain of PTK2B (human) (Q14289 whole entry, looked up): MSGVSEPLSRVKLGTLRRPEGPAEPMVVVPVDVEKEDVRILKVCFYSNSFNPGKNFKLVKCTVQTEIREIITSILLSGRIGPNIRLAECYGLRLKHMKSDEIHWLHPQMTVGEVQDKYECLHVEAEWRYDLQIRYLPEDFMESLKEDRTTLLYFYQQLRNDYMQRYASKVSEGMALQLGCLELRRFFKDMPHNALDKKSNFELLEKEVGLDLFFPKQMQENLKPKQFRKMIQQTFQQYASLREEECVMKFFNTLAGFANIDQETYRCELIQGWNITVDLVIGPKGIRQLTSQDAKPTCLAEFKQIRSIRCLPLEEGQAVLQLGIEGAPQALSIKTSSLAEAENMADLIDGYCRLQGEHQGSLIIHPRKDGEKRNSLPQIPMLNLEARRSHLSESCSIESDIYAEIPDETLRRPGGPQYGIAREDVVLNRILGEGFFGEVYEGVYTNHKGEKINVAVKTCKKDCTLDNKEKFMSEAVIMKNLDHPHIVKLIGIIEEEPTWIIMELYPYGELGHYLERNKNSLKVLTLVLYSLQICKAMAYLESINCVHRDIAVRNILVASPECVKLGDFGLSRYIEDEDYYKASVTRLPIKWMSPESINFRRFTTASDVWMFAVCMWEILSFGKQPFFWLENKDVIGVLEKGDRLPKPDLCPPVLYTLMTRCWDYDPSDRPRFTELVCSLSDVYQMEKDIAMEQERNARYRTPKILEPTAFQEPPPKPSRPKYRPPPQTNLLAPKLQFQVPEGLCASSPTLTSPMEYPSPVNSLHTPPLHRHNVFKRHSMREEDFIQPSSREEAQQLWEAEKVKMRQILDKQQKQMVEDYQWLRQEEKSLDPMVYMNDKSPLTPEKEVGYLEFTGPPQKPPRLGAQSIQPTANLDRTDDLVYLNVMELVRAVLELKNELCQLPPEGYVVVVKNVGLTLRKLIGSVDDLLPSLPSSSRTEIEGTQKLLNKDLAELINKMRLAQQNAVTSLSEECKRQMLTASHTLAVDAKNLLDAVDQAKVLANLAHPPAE
Chain of MTOR FKBP1A (human) (P62942 whole entry, looked up, other chains not shown): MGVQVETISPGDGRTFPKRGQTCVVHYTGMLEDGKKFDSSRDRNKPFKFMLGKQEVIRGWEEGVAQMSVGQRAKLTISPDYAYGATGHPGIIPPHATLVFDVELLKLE

residual activity (ACVR1B (human); compound 1.0 µM): 104%
residual activity (ACVR1B (human); compound 10.0 µM): 72%
residual activity (AURKB (human); compound 1.0 µM): 1%
residual activity (AURKB (human); compound 10.0 µM): -2%
residual activity ([1]; compound 1.0 µM): 10%
residual activity ([1]; compound 10.0 µM): 5%
residual activity (BTK (human); compound 1.0 µM): 31%
residual activity (BTK (human); compound 10.0 µM): 4%
residual activity (CDK2 CCNA2 (human); compound 1.0 µM): 19%
residual activity (CDK2 CCNA2 (human); compound 10.0 µM): 5%
residual activity (CHEK2 (human); compound 1.0 µM): 13%
residual activity (CHEK2 (human); compound 10.0 µM): 2%
residual activity (CLK3 (human); compound 1.0 µM): 79%
residual activity (CLK3 (human); compound 10.0 µM): 54%
residual activity ([2]; compound 1.0 µM): 112%
residual activity ([2]; compound 10.0 µM): 78%
residual activity (ERBB4 (human); compound 1.0 µM): 107%
residual activity (ERBB4 (human); compound 10.0 µM): 99%
residual activity (FGFR1 (human); compound 1.0 µM): 3%
residual activity (FGFR1 (human); compound 10.0 µM): -1%
residual activity (IRAK1 (human); compound 1.0 µM): 60%
residual activity (IRAK1 (human); compound 10.0 µM): 11%
residual activity ([3]; compound 1.0 µM): 21%
residual activity ([3]; compound 10.0 µM): 2%
residual activity (MAPK1 (human); compound 1.0 µM): 104%
residual activity (MAPK1 (human); compound 10.0 µM): 103%
residual activity (MAPK10 (human); compound 1.0 µM): 7%
residual activity (MAPK10 (human); compound 10.0 µM): -2%
residual activity (MAPK13 (human); compound 1.0 µM): 90%
residual activity (MAPK13 (human); compound 10.0 µM): 82%
residual activity (MAPK8 (human); compound 1.0 µM): 63%
residual activity (MAPK8 (human); compound 10.0 µM): 70%
residual activity (MTOR FKBP1A (human); compound 1.0 µM): 117%
residual activity (MTOR FKBP1A (human); compound 10.0 µM): 89%
residual activity (NTRK1 (human); compound 1.0 µM): 0%
residual activity (NTRK1 (human); compound 10.0 µM): 0%
residual activity (NUAK1 (human); compound 1.0 µM): 4%
residual activity (NUAK1 (human); compound 10.0 µM): 7%
residual activity (PAK4 (human); compound 1.0 µM): 55%
residual activity (PAK4 (human); compound 10.0 µM): 14%
residual activity (PAK7 (human); compound 1.0 µM): 64%
residual activity (PAK7 (human); compound 10.0 µM): 33%
residual activity (PDPK1 (human); compound 1.0 µM): 53%
residual activity (PDPK1 (human); compound 10.0 µM): 9%
residual activity ([4]; compound 1.0 µM): 2%
residual activity ([4]; compound 10.0 µM): 0%
residual activity (PRKCE (human); compound 1.0 µM): 106%
residual activity (PRKCE (human); compound 10.0 µM): 91%
residual activity (PRKCI (human); compound 1.0 µM): 96%
residual activity (PRKCI (human); compound 10.0 µM): 105%
residual activity (PTK2B (human); compound 1.0 µM): 14%
residual activity (PTK2B (human); compound 10.0 µM): 2%
residual activity (RPS6KA3 KD1 KD2 (human); compound 1.0 µM): 50%
residual activity (RPS6KA3 KD1 KD2 (human); compound 10.0 µM): 7%
residual activity ([5]; compound 1.0 µM): 59%
residual activity ([5]; compound 10.0 µM): 28%
residual activity (STK3 (human); compound 1.0 µM): 6%
residual activity (STK3 (human); compound 10.0 µM): 0%
residual activity (TAOK1 (human); compound 1.0 µM): 83%
residual activity (TAOK1 (human); compound 10.0 µM): 39%
residual activity (TSSK1B (human); compound 1.0 µM): 78%
residual activity (TSSK1B (human); compound 10.0 µM): 53%
residual activity (VRK2 (human); compound 1.0 µM): 71%
residual activity (VRK2 (human); compound 10.0 µM): 28%
Structure (SMILES): O=C1Nc2ccccc2/C1=C1\Nc2ccccc2\C1=N/O
